Laboratory results from patent US6642250B2, “1,8-naphthyridin-2(1H)-one derivatives” (Grelan Pharmaceutical Co., Ltd., priority 1999, dated 2003).

System: Female beagles
Assay type: in vivo
Details: fed female beagles, oral, emesis within 3 hours
Method: Female beagles (each group consisting of 3 dogs) as used herein were fed. One hour later, a suspension of each test compound in 0.5% CMC—Na solution was administered orally to the animals in a forced manner. […] Next, each maximum tolerance dose against emesis was obtained. […]

Question: Which “Maximum Tolerance Dose against Emesis” value does the source give for COc1ccc(C2CNC(=O)C2)cc1OC1CCCC1 (single isomer, unassigned) [Rolipram, rolipram, reference compound] here?
Answer: <0.1 mg/kg

Question: With O=c1c(CCCc2ccncc2)cc2cccnc2n1-c1cccc([N+](=O)[O-])c1 [Example No. 8, 1-(3-Nitrophenyl)-3-[3-(pyridin-4-yl)propyl]-1,8-naphthyridin-2(1H)-one] as the molecule, how does the “Maximum Tolerance Dose against Emesis” value read?
Answer: 0.3 mg/kg
